“And” between values parts separate entries of the source, which are not always exact repeats. Identical values can stand only once.
Tests used:
PfCRT variant E207P = assay: CQ uptake assay, oocytes expressing E207P; assay type: cell-based, Plasmodium falciparum
Method: (§1) Site-directed mutagenesis of PfCRT^Dd2 was performed as described using the megaprimer method with overlap extension[21],[54]. The primer pairs used are listed in Supplementary Table 6. Please note that a codon-optimized and oocyte-adapted version of PfCRT^Dd2 was used[22] (Supplementary Fig. 16). The resulting DNA fragment was cloned into the SP64T expression vector and verified by sequencing.
(§2) Oocytes were obtained as described previously. Briefly, adult (>2 years old) female X. laevis frogs (NASCO) were anesthetized in a cooled solution of ethyl 3-amino benzoate methanesulfonate (0.1%, w/v), followed by a surgical removal of parts of the ovary. The ovary lobes were carefully dissected and small pieces of oocytes were incubated in Ca^2+-free ND96 buffer (96 mM NaCl, 2 mM KCl, 1 mM MgCl2 buffered with 5 mM HEPES/NaOH, pH 7.5) supplemented with collagenase D (0.1%, w/v; Roche), BSA (0.5%, w/v), and 9 mm Na2HPO4 at 18 °C for 14-16 h while gentle shaking. After incubation, the oocytes were carefully washed several times with ND96 buffer (96 mM NaCl, 2 mM KCl, 1.8 mM CaCl2, 1 mM MgCl2 buffered with 5 mM HEPES/NaOH, pH 7.5) supplemented with 100 mg l^−1 gentamycin). Defolliculated and healthy-looking stage V-VI oocytes were manually selected for RNA microinjection. The RNA was generated as following: The codon-optimized sequences of PfCRT variants were cloned into the pSP64T expression vector. After vector linearization using the restriction endonucleases BamHI or SalI (New England Biolabs), transcription was performed using the in vitro SP6 mMessage mMachine Kit (Ambion)[34]. The obtained RNA was kept at −80 °C and diluted with nuclease-free water to a concentration of 0.6 μg μl^−1. Precision-bore glass capillary tubes (3.5-inch glass capillaries; Drummond Scientific Co.) were pulled on a vertical puller (P-87 Flaming/Brown micropipette puller, Sutter Instrument Co.), graduated, and placed on a microinjector (Nanoject II Auto-Nanoliter Injector, Drummond Scientific Co.). 50 nl of nuclease-free water alone (control oocytes) or 50 nl of 0.6 μg μl^−1 RNA were injected under stereomicroscopic control. Injected oocytes were incubated for 46–72 h at 18 °C with twice-daily buffer changes before usage in experiments.
(§3) Drug uptake assays were performed as described previously[21],[22],[24],[34]. […] The direction of radio-labeled drug transport is here from the mostly acidic extracellular solution (pH 4.5 or 6.0, as indicated) into the oocyte cytosol (pH ∼ 7.2), which corresponds to the efflux of drug from the acidic digestive vacuole (pH 5.2) into the parasite cytoplasm (pH 7.2). The topology of PfCRT in the oolemma is such that both the N- and C-terminus face the extracellular milieu[3],[22]. In the parasite, the N- and C-terminus face the lumen of the digestive vacuole. CQ uptake kinetics were performed by incubating oocytes in ND96 buffer adjusted to a pH of 4.5, 5.0, 5.5, or 6.0 and supplemented with 50 nM [^3H]CQ and one of 7 different CQ concentrations (10 µM, 50 µM, 100 µM, 200 µM, 300 µM, 400 µM, 500 µM CQ). The reaction was stopped at the 60 min time point, which is in the linear uptake range[22],[34] (Supplementary Fig. 17). For determination of the amount of drug uptake for each oocyte, the reaction medium was removed and the oocytes were washed three times with 2 ml of ice-cold ND96 buffer. Each oocyte was individually transferred to a scintillation vial containing 5% sodium dodecyl sulfate (200 μl) for lysis. The radioactivity of each sample was measured using a liquid scintillation analyzer Tri-Carb 4910 TR (PerkinElmer). Oocytes that were injected with water instead of RNA were analyzed in parallel, representing the uptake of a drug by diffusion and/or endogenous permeation pathways. The resulting value represents the “background“ level of drug accumulation in oocytes (in-depth discussion in[22]). […]

PfCRT variant E207D = assay: CQ uptake assay, oocytes expressing E207D; assay type: cell-based, Plasmodium falciparum
Method: as §1, §2, §3

PfCRT variant E207K = assay: CQ uptake assay, oocytes expressing E207K; assay type: cell-based, Plasmodium falciparum
Method: as §1, §2, §3

PfCRT variant E207C = assay: CQ uptake assay, oocytes expressing E207C; assay type: cell-based, Plasmodium falciparum
Method: as §1, §2, §3

PfCRT variant D377A = molecular target: T1, PfCRT variant D377A (Plasmodium falciparum, UniProt Q9N623, A220S/D377A/I356T/K76T/M74I/N326S/N75E/Q271E/R371I); assay: CQ uptake assay, oocytes expressing D377A; assay type: cell-based
T1 sequence (Q9N623 1-424 M74I/N75E/K76T/A220S/Q271E/N326S/I356T/R371I/D377A): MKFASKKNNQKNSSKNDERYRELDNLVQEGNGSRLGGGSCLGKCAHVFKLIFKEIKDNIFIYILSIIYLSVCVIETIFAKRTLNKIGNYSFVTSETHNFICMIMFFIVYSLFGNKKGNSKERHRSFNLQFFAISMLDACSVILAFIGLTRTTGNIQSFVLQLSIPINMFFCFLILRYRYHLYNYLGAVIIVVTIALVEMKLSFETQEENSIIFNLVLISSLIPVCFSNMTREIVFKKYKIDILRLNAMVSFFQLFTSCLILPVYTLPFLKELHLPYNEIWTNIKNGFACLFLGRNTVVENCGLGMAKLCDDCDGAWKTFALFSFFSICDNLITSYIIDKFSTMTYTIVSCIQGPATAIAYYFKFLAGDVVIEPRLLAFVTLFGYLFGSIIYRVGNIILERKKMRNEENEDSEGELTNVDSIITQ
Method: as §1, §2, §3

[1] = E207P, 50 µM CQ, 1 h, mean ± SEM
[2] = pH 4.5, individual replicates, Fig 6b
[3] = pH 6.0, individual replicates, Fig 6b
[4] = ratio of activity pH 4.5 / pH 6.0
[5] = E207D, 50 µM CQ, 1 h, mean ± SEM
[6] = E207K, 50 µM CQ, 1 h, mean ± SEM
[7] = E207C, 50 µM CQ, 1 h, mean ± SEM
[8] = D377A, 50 µM CQ, 1 h, mean ± SEM

## CCN(CC)CCCC(C)Nc1ccnc2cc(Cl)ccc12 (stereo not drawn) [CQ, chloroquine]
PfCRT variant E207P; [1]
  Activity at pH 4.5: 2.31 ± 0.3 pmol h-1 oocyte-1
  Activity at pH 6.0: 2.45 ± 0.21 pmol h-1 oocyte-1
PfCRT variant E207P; E207P, CQ transport at pH 4.5 / pH 6.0
  R-value: 0.93 ± 0.05
PfCRT variant E207P; [2]
  E207P transport activity pH 4.5: 2.94 pmol oocyte-1 h-1 and 1.66 pmol oocyte-1 h-1 and 2.34 pmol oocyte-1 h-1
PfCRT variant E207P; [3]
  E207P transport activity pH 6.0: 2.94 pmol oocyte-1 h-1 and 2.08 pmol oocyte-1 h-1 and 2.34 pmol oocyte-1 h-1
PfCRT variant E207P; [4]
  E207PR-value: 1.00 and 0.80
PfCRT variant E207D; [5]
  Activity at pH 4.5: 1.82 ± 0.06 pmol h-1 oocyte-1
  Activity at pH 6.0: 5.13 ± 0.37 pmol h-1 oocyte-1
PfCRT variant E207D; E207D, CQ transport at pH 4.5 / pH 6.0
  R-value: 0.36 ± 0.05
PfCRT variant E207D; [2]
  E207D transport activity pH 4.5: 1.93 pmol oocyte-1 h-1 and 1.78 pmol oocyte-1 h-1 and 1.98 pmol oocyte-1 h-1 and 1.89 pmol oocyte-1 h-1 and 1.82 pmol oocyte-1 h-1 and 1.51 pmol oocyte-1 h-1
PfCRT variant E207D; [3]
  E207D transport activity pH 6.0: 4.59 pmol oocyte-1 h-1 and 4.25 pmol oocyte-1 h-1 and 6.63 pmol oocyte-1 h-1 and 6.08 pmol oocyte-1 h-1 and 4.42 pmol oocyte-1 h-1 and 4.78 pmol oocyte-1 h-1
PfCRT variant E207D; [4]
  E207D R-value: 0.42 and 0.30 and 0.31 and 0.41 and 0.32
PfCRT variant E207K; [6]
  Activity at pH 4.5: 1.91 ± 0.10 pmol h-1 oocyte-1
  Activity at pH 6.0: 2.34 ± 0.24 pmol h-1 oocyte-1
PfCRT variant E207K; E207K, CQ transport at pH 4.5 / pH 6.0
  R-value: 0.83 ± 0.04
PfCRT variant E207K; [2]
  E207K transport activity pH 4.5: 2.09 pmol oocyte-1 h-1 and 1.67 pmol oocyte-1 h-1 and 1.96 pmol oocyte-1 h-1
PfCRT variant E207K; [3]
  E207K transport activity pH 6.0: 2.92 pmol oocyte-1 h-1 and 1.97 pmol oocyte-1 h-1 and 2.13 pmol oocyte-1 h-1
PfCRT variant E207K; [4]
  E207K R-value: 0.72 and 0.85 and 0.92
PfCRT variant E207C; [7]
  Activity at pH 4.5: 1.30 ± 0.11 pmol h-1 oocyte-1
  Activity at pH 6.0: 1.53 ± 0.16 pmol h-1 oocyte-1
PfCRT variant E207C; E207C, CQ transport at pH 4.5 / pH 6.0
  R-value: 0.86 ± 0.09
PfCRT variant E207C; [2]
  E207C transport activity pH 4.5: 0.95 pmol oocyte-1 h-1 and 1.34 pmol oocyte-1 h-1 and 1.57 pmol oocyte-1 h-1 and 1.33 pmol oocyte-1 h-1
PfCRT variant E207C; [3]
  E207C transport activity pH 6.0: 1.15 pmol oocyte-1 h-1 and 2.00 pmol oocyte-1 h-1 and 1.64 pmol oocyte-1 h-1 and 1.34 pmol oocyte-1 h-1
PfCRT variant E207C; [4]
  E207C R-value: 0.83 and 0.67 and 0.96 and 0.99
PfCRT variant D377A; [8]
  Activity at pH 4.5: 0.62 ± 0.01 pmol h-1 oocyte-1
  Activity at pH 6.0: 1.44 ± 0.13 pmol h-1 oocyte-1
PfCRT variant D377A; D377A, CQ transport at pH 4.5 / pH 6.0
  R-value: 0.44 ± 0.04
PfCRT variant D377A; pH 4.5, single replicates, Fig 1d left
  D377A transport activity pH 4.5: 0.64 pmol oocyte-1 h-1 and 0.61 pmol oocyte-1 h-1
PfCRT variant D377A; pH 4.5 vs pH 6.0, Fig 1d left
  D377A R-value: 0.44 and 0.36 and 0.52
PfCRT variant D377A; pH 6.0, single replicates, Fig 1d left
  D377A transport activity pH 6.0: 1.44 pmol oocyte-1 h-1 and 1.71 pmol oocyte-1 h-1 and 1.17 pmol oocyte-1 h-1
